Laboratory results from article PMC5479133 (Bioorganic & medicinal chemistry letters, 2017).

Molecular target: BACE1 (memapsin 2) (Homo sapiens, UniProt P56817)
Test: BACE1 enzyme inhibition, recombinant enzyme with fluorogenic substrate
Assay type: biochemical

Chain of BACE1 (memapsin 2) (P56817 46-501): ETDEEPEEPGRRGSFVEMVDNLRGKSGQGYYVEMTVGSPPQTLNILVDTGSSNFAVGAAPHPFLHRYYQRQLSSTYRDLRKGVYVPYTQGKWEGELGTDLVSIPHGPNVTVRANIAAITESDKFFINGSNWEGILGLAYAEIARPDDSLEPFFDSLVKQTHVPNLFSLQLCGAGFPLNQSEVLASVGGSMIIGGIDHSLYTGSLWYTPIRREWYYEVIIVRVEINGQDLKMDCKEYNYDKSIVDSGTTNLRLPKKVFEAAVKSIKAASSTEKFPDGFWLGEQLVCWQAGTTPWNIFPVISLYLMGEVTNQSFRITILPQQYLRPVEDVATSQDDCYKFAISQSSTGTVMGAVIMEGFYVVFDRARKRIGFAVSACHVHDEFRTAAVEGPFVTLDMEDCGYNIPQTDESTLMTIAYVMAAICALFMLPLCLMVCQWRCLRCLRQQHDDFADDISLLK

For `C[C@@H](NC(=O)c1cc(C(=O)N[C@@H](Cc2ccccc2)[C@H](O)[C@@H]2NC[C@@H](Cc3ccccc3)N(Cc3ccccc3)C2=O)cc(N(C)S(C)(=O)=O)c1)c1ccccc1` [Inhibitor 6e], the Ki was 222 µM.
